This is an account of results in patent US10869924B2, “PD-L1 antagonist combination treatments” (MERCK PATENT GMBH, priority 2015, dated 2020).

Series [1] deals with MC38 colon carcinoma. The experiment in a line: Subcutaneous MC38 colon carcinoma model, avelumab, anti-4-1BB and anti-M-CSF (Example 5). The format is in vivo, mouse. To be noted: anti-4-1BB 1 mg/kg, anti-M-CSF 15 mg/kg, Avelumab 10 mg/kg, ip, 3 doses 3 to 4 days apart, C57BL/6 mice. The procedure:
(§1) Six (6)- to 8-week old female C57BL/6 mice were purchased from the Jackson Laboratories. All animals were housed in a pathogen free vivarium facility at Rinat and experiments were conducted according to the protocols in accordance with the Institutional Animal Care and Use Committee (IACUC) guidelines.
The MC38 colon carcinoma cell line was kindly provided by Dr. Antoni Ribas at University of California, Los Angeles, Calif. Cells were cultured in Dulbecco's Modified Eagle's Medium (DMEM) supplemented with 10% fetal bovine serum (FBS), 2 mM L glutamine at 37° C. in 5% carbon dioxide (CO2), and IMPACT-tested for pathogens at Research Animal Diagnostic Laboratory (RADIL) (Columbia, Mo.). Pathogen-free cells growing in an exponential growth phase were harvested and used for tumor inoculation.
Therapeutic mouse anti-mouse 4-1BB mAb (mouse immunoglobulin G1 [mIgG1]), derived from the parental clone MAB9371 (R&D Systems), was prepared in-house. Avelumab was provided by Merck Serono. Rat anti-mouse M-CSF (clone 5A1), rat IgG1 (clone HRPN) and mIgG1 (clone: MOPC-21) isotype controls were purchased from BioXcell. Human IgG1 isotype was prepared in-house. Anti-4-1BB, avelumab and anti-M-CSF mAbs were diluted to concentrations of 0.1 mg/mL and 1 mg/mL, and 1.5 mg/mL, respectively, in phosphate buffered saline (PBS) (Life Technologies), and dosed at 0.2 mL per mouse intraperitoneally (ip) for 3 doses 3 to 4 days apart.
C57BL/6 mice were inoculated subcutaneously at the right flank with 0.5-1×10^6 MC38 cells in 0.1 mL of DMEM. When tumors reached an average of ˜60 mm^3 (range 41-93 mm^3), mice were randomized into groups of 10 animals per group, and treatment was started at the same day. Tumor size was measured in two dimensions using a caliper, and the volume was expressed in mm^3 using the formula: V=0.5 L×W^2 where L and W are the long and short diameters of the tumor, respectively. Body weight was recorded weekly.
Results were expressed as mean±SEM (Table 8). Statistical analyses were performed using GraphPad Prism 6.0. One-way or two-way ANOVA was applied to compare the statistical differences among multiple groups relative to isotype controls. P<0.05 was considered as significant difference.

Series [2] concerns MC38 colon carcinoma. Nature of the series: Subcutaneous MC38 colon carcinoma model, anti-4-1BB and avelumab (Example 3). The format is in vivo. To be noted: anti-4-1BB 0.1 mg/mL, avelumab 1 mg/mL, 0.2 mL per mouse ip, 3 doses 3 to 4 days apart, C57BL/6 mice. The procedure:
as §1
The B16F10 melanoma cell line was purchased from American Type Culture Collection (ATCC). The MC38 colon carcinoma cell line was kindly provided by Dr. Antoni Ribas at University of California, Los Angeles, Calif. Cells were cultured in Dulbecco's Modified Eagle's Medium (DMEM) supplemented with 10% fetal bovine serum (FBS), 2 mM L-glutamine at 37° C. in 5% carbon dioxide (CO2), and IMPACT-tested for pathogens at Research Animal Diagnostic Laboratory (RADIL) (Columbia, Mo.). Pathogen-free cells growing in an exponential growth phase were harvested and used for tumor inoculation.
Therapeutic mouse anti-mouse 4-1BB mAb (mouse immunoglobulin G1 [mIgG1]), derived from the parental clone MAB9371 (R&D Systems), was prepared in-house. Avelumab was provided by Merck Serono. Isotype control mIgG1 (clone: MOPC-21) was purchased from BioXcell. Human IgG1 was prepared in-house. Anti-4-1BB and avelumab were diluted to concentrations of 0.1 mg/mL and 1 mg/mL, respectively, in phosphate buffered saline (PBS) (Life Technologies), and dosed at 0.2 mL per mouse intraperitoneally (ip) for 3 doses 3 to 4 days apart.
C57BL/6 mice were inoculated subcutaneously at the right flank with 0.2×10^6 B16F10 or 0.5×10^6 MC38 cells in 0.1 mL of serum-free DMEM. When tumors reached target size, mice were randomized into treatment groups. Treatment was started on the same day as randomization. Tumor size was measured twice weekly in 2 dimensions using a caliper, and the volume was expressed in cubic millimeters using the formula: V=0.5 L×W^2 where L is the longest diameter of the tumor and W is the diameter perpendicular to L. Body weight was recorded weekly.
Results were expressed as mean±SEM. Statistical analyses were performed using GraphPad Prism 6.0. One-way or 2-way ANOVA was applied to compare the statistical differences among multiple groups relative to the isotype control. P<0.05 was considered as significant difference.
In the MC38 colon carcinoma model, the average starting tumor size was approximately 60 mm^3 (range 41-92 mm^3; n=10 animals per group) (Table 6). At the end of study (Day 23 post tumor implantation), the average tumor volumes of isotype, anti-4-1BB alone, avelumab alone, and anti-4-1BB antibody/avelumab combination groups were 1177±252 mm^3, 1093±183 mm^3, 901±206 mm^3, and 530±190 mm^3, respectively (Table 6). The reduction in tumor size by the combination treatment was significant, compared to the isotype control (p<0.001) and 4-1BB alone groups (p<0.01), but not to the avelumab group (p>0.05) (Table 6).

The conditions of series [3]: in vivo; cited from earlier work.

In the case of “Avelumab: fully human mAb of the IgG1 isotype that specifically targets and blocks PD-L1”, the “Mean Tumor Size” value amounted to 63 mm^3 in series [1] (Day 7 post-tumor inoculation (start of treatment)); 127 mm^3 in series [1] (Day 10 post-tumor inoculation); 254 mm^3 in series [1] (Day 14 post-tumor inoculation); 384 mm^3 in series [1] (Day 16 post-tumor inoculation); 523 mm^3 in series [1] (Day 18 post-tumor inoculation); 714 mm^3 in series [1] (Day 21 post-tumor inoculation). The “Mean Tumor Size” value in series [1] (Day 23 post-tumor inoculation) was found to be 901 mm^3. Besides, the “Tumor Measurements of Subcutaneous MC38 Colon Carcinoma, Mean tumor volume” value in series [2] (Day 7 post tumor implantation (starting tumor size)) was 63 mm^3; in series [2] (Day 10 post tumor implantation), 127 mm^3; in series [2] (Day 14 post tumor implantation), 254 mm^3; in series [2] (Day 16 post tumor implantation) it was 384 mm^3; in series [2] (Day 18 post tumor implantation) it was 523 mm^3; in series [2] (Day 21 post tumor implantation) it was 714 mm^3. The “Tumor Measurements of Subcutaneous MC38 Colon Carcinoma, Mean tumor volume” value in series [2] (Day 23 post tumor implantation (end of study)) came out at 901 mm^3; in series [2] (Day 23 post tumor implantation (end of study), listed as avelumab) it was 901±206 mm^3. Also, in series [3], the half-life was 72 to 120 h.
